US11213517B2, “Pharmaceutical combination comprising a T-type calcium channel blocker” (IDORSIA PHARMACEUTICALS LTD, priority 2016, dated 2022)
Where “and” joins values, the source holds several entries; their conditions need not be identical. Identical values can stand only once. Like-named read-outs stand apart in the source and are kept apart here.

Assays:
[1] = Plasma and brain concentrations of drugs at the end of the audiogenic seizure experiment (LC-MS); type: in vivo, mouse; conditions: for concentration at 1 h: DBA/2J, mouse, oral; for concentration at 1 h / Brain concentration total: analyte LEV, oral gavage, mean ± SEM
Procedure: Briefly, blood was sampled from the vena cava caudalis with a syringe pre-filled with EDTA (ethylenediamine tetraacetic acid) as anticoagulant and centrifuged to yield plasma (for 10 minutes, at 4° C. and 5000 rpm (rounds per minute)). Brain was sampled and homogenized into one volume of cold phosphate buffer (pH 7.4). Following extraction with methanol, concentrations of the compound in plasma and brain were determined using liquid chromatography coupled to mass spectrometry.
(§1) Different combination efficacy experiments are performed. […] Each experiment consists of four treatment groups: • 1. Vehicle (10% Polyethylene glycol400 (PEG400)/90% methylcellulose (0.5% in water; MC0.5%)), 3 h before exposure to the auditory stimulus+vehicle, 1 h before exposure to the auditory stimulus; • 2. COMPOUND 1 (in 10% PEG400/90% MC0.5%), 3 h before exposure to the auditory stimulus+vehicle, 1 h before exposure to the auditory stimulus; • 3. Vehicle, 3 h before exposure to the auditory stimulus+AED (in 10% PEG400/90% MC0.5%), 1 h before exposure to the auditory stimulus; and • 4. COMPOUND 1 (in 10% PEG400/90% MC0.5%), 3 h before exposure to the auditory stimulus+AED (in 10% PEG400/90% MC0.5%), 1 h before exposure to the auditory stimulus.

[2] = system: audiogenic seizure-sensitive juvenile DBA/2J mice; test: Audiogenic seizure-sensitive juvenile DBA/2J mouse model of generalized tonic-clonic seizures; type: in vivo; set-up: key: 0 none, 1 wild running, 2 clonus, 3 hind-limb tonic extension; conditions: oral gavage, mean ± SEM
Excerpt: Audiogenic Seizure-Sensitive Juvenile DBA/2J Mouse Model of Generalized Tonic-Clonic Seizures
The inbred DBA/2J mouse strain carries an increased general susceptibility for acute generalized convulsive seizures induced by either pharmacological, electrical or, as juvenile, auditory stimuli. At the age of 17 to 28 days (juvenile), they show tonic-clonic convulsions when exposed to a loud tone.
Male juvenile DBA/2J mice (22-24 days old, body weight between 6.6 and 14.5 grams) were used. Each mouse was placed individually in the exposure chamber, an hemispheric acrylic glass dome (diameter: 50 cm) within a sound-attenuated box. After 60 seconds of habituation, an auditory stimulus of mixed frequency tone (15-20 kHz at 110 dB) was played from a speaker placed on the top center of the dome.
The sound-attenuated box was equipped with lights and a camera system in order to observe and record the behavioral seizure response classified as following: • stage 0, no response • stage 1, wild running • stage 2, clonus • stage 3, tonic extension of the hind limbs.
as §1

[3] = vehicle 3 h + LEV 3 mg/kg 1 h before stimulus

CC[C@@H](C(N)=O)N1CCCC1=O [LEV, (S)-2-(2-oxopyrrolidin-1-yl)butanamide]
plasma and brain concentrations after administration of the compounds alone or in combination ([1]; COMPOUND 1 and LEV, juvenile DBA/2J mice): similar
concentration at 1 h ([1]; brain, 1 mg/kg, vehicle 3 h + LEV 1 mg/kg 1 h before stimulus, read-out: Brain concentration total): 224 ± 20 ng/g
concentration at 1 h ([1]; brain, 3 mg/kg, vehicle 3 h + LEV 3 mg/kg 1 h before stimulus, read-out: Brain concentration total): 677 ± 70 ng/g
concentration at 1 h ([1]; brain, 10 mg/kg, vehicle 3 h + LEV 10 mg/kg 1 h before stimulus, read-out: Brain concentration total): 2130 ± 267 ng/g
concentration at 1 h ([1]; brain, 50 mg/kg, vehicle 3 h + LEV 50 mg/kg 1 h before stimulus, read-out: Brain concentration total): 11100 ± 886 ng/g
concentration at 1 h ([1]; brain, COMPOUND 1 10 mg/kg 3 h + LEV 1 mg/kg 1 h before stimulus, read-out: Brain concentration total): 310 ± 34 ng/g
concentration at 1 h ([1]; brain, COMPOUND 1 10 mg/kg 3 h + LEV 3 mg/kg 1 h before stimulus, read-out: Brain concentration total): 787 ± 39 ng/g
concentration at 1 h ([1]; brain, COMPOUND 1 10 mg/kg 3 h + LEV 10 mg/kg 1 h before stimulus, read-out: Brain concentration total): 2590 ± 169 ng/g
concentration at 1 h ([1]; brain, COMPOUND 1 10 mg/kg 3 h + LEV 50 mg/kg 1 h before stimulus, read-out: Brain concentration total): 12600 ± 549 ng/g
concentration at 1 h ([1]; brain, COMPOUND 1 30 mg/kg 3 h + LEV 3 mg/kg 1 h before stimulus, read-out: Brain concentration total): 714 ± 59 ng/g
concentration at 1 h ([1]; brain, COMPOUND 1 30 mg/kg 3 h + LEV 10 mg/kg 1 h before stimulus, read-out: Brain concentration total): 2150 ± 142 ng/g
concentration at 1 h ([1]; brain, COMPOUND 1 30 mg/kg 3 h + LEV 50 mg/kg 1 h before stimulus, read-out: Brain concentration total): 13500 ± 1380 ng/g
concentration at 1 h ([1]; plasma, 1 mg/kg, vehicle 3 h + LEV 1 mg/kg 1 h before stimulus, read-out: Plasma concentration total): 541 ± 48 ng/mL
concentration at 1 h ([1]; plasma, 3 mg/kg, vehicle 3 h + LEV 3 mg/kg 1 h before stimulus, read-out: Plasma concentration total): 1170 ± 53 ng/mL
concentration at 1 h ([1]; plasma, 10 mg/kg, vehicle 3 h + LEV 10 mg/kg 1 h before stimulus, read-out: Plasma concentration total): 4530 ± 473 ng/mL
concentration at 1 h ([1]; plasma, 50 mg/kg, vehicle 3 h + LEV 50 mg/kg 1 h before stimulus, read-out: Plasma concentration total): 26500 ± 2810 ng/mL
concentration at 1 h ([1]; plasma, COMPOUND 1 10 mg/kg 3 h + LEV 1 mg/kg 1 h before stimulus, read-out: Plasma concentration total): 564 ± 42 ng/mL
concentration at 1 h ([1]; plasma, COMPOUND 1 10 mg/kg 3 h + LEV 3 mg/kg 1 h before stimulus, read-out: Plasma concentration total): 1250 ± 53 ng/mL
concentration at 1 h ([1]; plasma, COMPOUND 1 10 mg/kg 3 h + LEV 10 mg/kg 1 h before stimulus, read-out: Plasma concentration total): 5780 ± 232 ng/mL
concentration at 1 h ([1]; plasma, COMPOUND 1 10 mg/kg 3 h + LEV 50 mg/kg 1 h before stimulus, read-out: Plasma concentration total): 27000 ± 1350 ng/mL
concentration at 1 h ([1]; plasma, COMPOUND 1 30 mg/kg 3 h + LEV 3 mg/kg 1 h before stimulus, read-out: Plasma concentration total): 1230 ± 64 ng/mL
concentration at 1 h ([1]; plasma, COMPOUND 1 30 mg/kg 3 h + LEV 10 mg/kg 1 h before stimulus, read-out: Plasma concentration total): 3880 ± 226 ng/mL
concentration at 1 h ([1]; plasma, COMPOUND 1 30 mg/kg 3 h + LEV 50 mg/kg 1 h before stimulus, read-out: Plasma concentration total): 26200 ± 2400 ng/mL
Brain concentration total [1, 3]: 675 ± 82 ng/g
Brain concentration total ([1]; vehicle 3 h + LEV 10 mg/kg 1 h before stimulus): 2307 ± 207 ng/g
Brain concentration total ([1]; vehicle 3 h + LEV 50 mg/kg 1 h before stimulus): 11318 ± 1440 ng/g
Seizure stage (maximal seizure stage observed during exposure to auditory stimulus) ([2]; vehicle 3 h + LEV 1 mg/kg 1 h before stimulus): 3.0 ± 0.0
Seizure stage (maximal seizure stage observed during exposure to auditory stimulus) ([2]; vehicle 3 h + LEV 1 mg/kg 1 h before stimulus, listed as levetiracetam): 3
Seizure stage (maximal seizure stage observed during exposure to auditory stimulus) [2, 3]: 2.1 ± 0.4 and 2.6 ± 0.3
